PubChem BioAssay (NCI)
“And” between values parts separate entries of the source, which are not always exact repeats. Identical values can stand only once.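 These data come from cells grown in 96-well plates and exposed to compound for 48 hours at five concentrations. GI50 marks 50% less growth. The concentration for full growth arrest is given as TGI.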 *1 amine or outer side, *2 acyl side, *3 side chain or, on linkers, in order; H or OH if unused. Where a SMILES comes first, the peptide text is derived from it. [ ]: non-standard residue; d: D form. The star is where a group is joined. ξ: configuration not given here. X15 = CCN(CC)c1ccc2cc(N*)c(=O)oc2c1; dIva = CC[C@@](C)(N)C(=O)O; X14 = O=C(OCCN[*:1])[*:2]; Aib = CC(C)(N)C(=O)O; ξP = O=C(O)C1CCCN1; βAla = NCCC(=O)O

Legend:
Experiment in all cases: NCI-60 cell line screen, 48 h
SK-MEL-2 melanoma = system: SK-MEL-2 melanoma
HS 578T breast = system: HS 578T breast
SW-620 colon = system: SW-620 colon
SNB-19 CNS = system: SNB-19 CNS
IGROV1 ovarian = system: IGROV1 ovarian
HCT-15 colon = system: HCT-15 colon
KM12 colon = system: KM12 colon
PC-3 prostate = system: PC-3 prostate
UO-31 renal = system: UO-31 renal
MDA-MB-435 = system: MDA-MB-435

Row | SMILES | TGI (SK-MEL-2 melanoma) | GI50 (HS 578T breast) [µM] | TGI (HS 578T breast) | GI50 (SW-620 colon) [µM] | TGI (SW-620 colon) [µM] | GI50 (SNB-19 CNS) [µM] | TGI (SNB-19 CNS) [µM] | GI50 (IGROV1 ovarian) [µM] | TGI (IGROV1 ovarian) | GI50 (HCT-15 colon) [µM] | TGI (HCT-15 colon) [µM] | GI50 (KM12 colon) [µM] | TGI (KM12 colon) [µM] | GI50 (PC-3 prostate) [µM] | TGI (PC-3 prostate) | GI50 (UO-31 renal) [µM] | TGI (UO-31 renal) | TGI (MDA-MB-435) [µM] | GI50 (SK-MEL-2 melanoma) [µM] | GI50 (MDA-MB-435) [µM]
1 | CCN1C(=O)N(CC)C2C1NN=c1s/c(=C\c3cc4ccccc4[nH]3)c(=O)n12 (centres undefined) | 33.9 µM | < 0.0203 | 9.1 µM | 0.0277 | > 100 | 0.055 | 15.8 | 0.0139 | 12.2 µM | 0.0324 | > 100 | < 0.012 | > 58.6 | < 0.015 | > 100 µM | 0.0523 | 10.4 µM | – | – | –
2 | C1CCOC2(CCC3(CC2)OCCCCO3)OC1 | > 100 µM | – | – | – | > 100 | – | > 100 | – | > 100 µM | – | > 100 | – | > 100 | – | – | – | > 100 µM | – | – | –
3 | COc1ccc(/C=C2\CCC(CN(C)C)C2=O)cc1OC (centres undefined) | 26.9 µM | – | > 100 µM | – | 4.44 | – | 30.6 | – | 33.1 µM | – | 8.81 | – | 10.8 | – | 13.9 µM | – | 24.6 µM | 16.1 | – | –
4 | CCN(CC)c1ccc2cc(NC(=O)OCCNC(=O)CCNC(=O)[C@H](CC(C)C)NC(=O)C(C)(C)NC(=O)C(C)(C)NC(=O)[C@H](CC(C)C)NC(=O)CCNC(=O)C(C)(C)NC(=O)[C@H](CC(C)C)NC(=O)CCNC(=O)[C@@](C)(CC)NC(=O)[C@H](C)NC(=O)CCNC(=O)C(C)(C)NC(=O)[C@H](C)NC(=O)[C@@H]3CCCN3C(=O)[C@@](C)(CC)NC(=O)[C@H](Cc3ccccc3)NC(=O)C3CCCN3C(=O)C(C)(C)NC(=O)C3CCCN3C(=O)C(C)(C)NC(C)=O)c(=O)oc2c1 (some centres undefined) (Ac-[Aib][ξP][Aib][ξP]F[dIva]PA[Aib][βAla]A[dIva][βAla]L[Aib][βAla]L[Aib][Aib]L[βAla][X14]-X15) | 0.00665 µM | 0.0045 | 0.0548 µM | 0.0048 | 0.102 | 0.00355 | 0.0426 | – | – | 0.135 | 0.278 | 0.00425 | 0.0348 | 0.00311 | 0.0281 µM | 0.0296 | 0.114 µM | 0.0252 | 0.00266 | 0.00353
5 | Nc1nc(N)c(N=O)c(OCC2CCCCC2)n1 | 32.8 µM and 24.6 µM | 2.81 | 21 µM and 46.1 µM | 20.4 | > 100 | – | > 100 | 3.69 | 24.1 µM and 24.5 µM | – | > 100 | – | > 100 | 3.23 | > 100 µM and 22.9 µM | 3.24 | 39.1 µM and 39.7 µM | > 85.3 | 8.52 | 12.8
6 | FC(F)(F)c1ccc(-c2cnc(Cl)nc2NCc2cc(C(F)(F)F)cc(C(F)(F)F)c2)cc1 | 5.28 µM | 3.03 | > 100 µM | 3.14 | > 100 | 2.44 | > 100 | 7.87 | > 100 µM | 3.48 | > 100 | 3.06 | > 100 | – | – | 2.51 | > 100 µM | > 100 | 2.35 | 2.96
7 | C=C1CCC2[C@@H](CCC3[C@]2(C)CCC[C@]3(C)C(=O)OC)C1CCO (some centres undefined) | 36.6 µM | – | – | – | 26.9 | – | 28 | – | 29.6 µM | – | 27.3 | – | 25.2 | – | – | – | 31.7 µM | – | – | –
8 | C=C1CCc2occ(C)c2C2C1C1=C(CC(C)C1=O)C1OC12C (centres undefined) | > 100 µM | – | – | – | > 100 | – | > 100 | – | > 100 µM | – | > 100 | – | > 100 | – | – | – | > 100 µM | – | – | –
9 | C=CCNC(=O)NCCCC(NC(C)=O)C(=O)NCc1ccccc1 (centres undefined) | > 100 µM | – | – | – | > 100 | – | > 100 | – | > 100 µM | – | > 100 | – | > 100 | – | – | – | > 100 µM | – | – | –
10 | CCCC(Sc1ccccc1)P(=O)(c1ccccc1)c1ccccc1 (centres undefined) | – | – | – | – | > 100 | – | > 100 | – | – | – | – | – | > 100 | – | – | – | > 100 µM | – | – | –
11 | N.N.NCCCCCCN.O=C([O-])CC(=O)[O-].O=C([O-])CC(=O)[O-].[Pt+4].[Pt+4] | > 100 µM | – | – | > 38 | > 58.7 | > 72.1 | > 100 | > 100 | > 100 µM | > 66.1 | > 100 | > 100 | > 100 | – | – | > 100 | > 100 µM | – | > 100 | –
12 | CCCOc1nc(SCCC)nc2c1cnn2-c1ccccc1 | – | > 100 | > 100 µM | > 100 | > 100 | > 100 | > 100 | > 100 | > 100 µM | > 100 | > 100 | 93.1 | > 100 | 30.7 | > 100 µM | > 100 | > 100 µM | > 100 | – | 53.1
13 | C=CC1C(OC2OC(CO)C(O)C(O)C2O)OC=C(C(=O)OC)C1CC=O (centres undefined) | > 100 µM | – | – | – | > 100 | – | > 100 | – | > 100 µM | – | > 100 | – | > 100 | – | – | – | > 100 µM | – | – | –
14 | CCC1CCc2c(OC)ccc(OCC(=O)O)c2C1=O (centres undefined) | > 100 µM | – | – | – | > 100 | – | > 100 | – | > 100 µM | – | > 100 | – | > 100 | – | – | – | > 100 µM | – | – | –
15 | CCN(CC)CC(C(=O)Nc1c(C)cccc1C)/C(C)=N\NC(=O)c1ccncc1 (centres undefined) | > 100 µM | – | – | – | – | – | > 100 | – | > 100 µM | – | > 100 | – | > 100 | – | – | – | > 100 µM | – | – | –
16 | C/C=C/C=C/CCCCCCCCCCCCCC1(OC)C=CC(CC(=O)OC)OO1 (centres undefined) | 39 µM | – | – | 1.99 | 4.34 | – | 31.7 | 0.509 | 1.03 µM | 3.08 | 11.2 | 1.56 | 3.13 | – | – | – | 7.94 µM | – | – | –
17 | Cc1c(Cl)cccc1NC1=C(Cl)C(=O)N(Cc2ccccc2)C1=O | 89.9 µM | 10.9 | 24.8 µM | – | – | 22.1 | 61.5 | 19.7 | 56.5 µM | 4.37 | 18 | 2.17 | 14 | 4.85 | 19 µM | 6.96 | 24.4 µM | 20.8 | 27.5 | 8.55
18 | O=C1CCC2(c3ccccc3)Nc3ncccc3N12 (centres undefined) | > 100 µM | – | – | – | > 100 | – | – | – | > 100 µM | – | > 100 | – | > 100 | – | – | – | > 100 µM | – | – | –
